{"source": "paper PMC5218480", "about": "(PLoS ONE, 2017)", "system": "MV-4-11 cells", "test": "Gene expression microarray analysis (Affymetrix PrimeView) and GSEA", "type": "cell-based, human", "parameters": "RFU PODN (11730768_x_at) / Fold change /veh PODN (11730768_x_at) / RFU LINC00158 (11744669_a_at) / Fold change /veh LINC00158 (11744669_a_at) / RFU DUSP10 (11751237_a_at) / Fold change /veh DUSP10 (11751237_a_at) / RFU ID3 (11757404_x_at) / Fold change /veh ID3 (11757404_x_at) / RFU PLEKHG5 (11737974_s_at) / Fold change /veh PLEKHG5 (11737974_s_at) / RFU LRRC4B (11730491_at) / Fold change /veh LRRC4B (11730491_at) / RFU GIMAP4 (11747438_a_at) / Fold change /veh GIMAP4 (11747438_a_at) / RFU KRT8 (11758183_x_at) / Fold change /veh KRT8 (11758183_x_at) / RFU CNN1 (11734310_a_at) / Fold change /veh CNN1 (11734310_a_at) / RFU VPS37D (11726825_at) / Fold change /veh VPS37D (11726825_at) / RFU C10orf10 (11716522_x_at) / Fold change /veh C10orf10 (11716522_x_at) / RFU KIR2DL2 /// KIR2DL4 /// KIR2DL5A /// KIR2DL5B /// KIR2DS1 /// KIR2DS2 /// KIR2DS3 /// KIR2DS4 /// KIR3DL3 /// KIR3DL3 /// KIR3DS1 (11738374_at) / Fold change /veh KIR2DL2 /// KIR2DL4 /// KIR2DL5A /// KIR2DL5B /// KIR2DS1 /// KIR2DS2 /// KIR2DS3 /// KIR2DS4 /// KIR3DL3 /// KIR3DL3 /// KIR3DS1 (11738374_at) / RFU C1QL1 (11718748_at) / Fold change /veh C1QL1 (11718748_at) / RFU TMPRSS4 (11747572_a_at) / Fold change /veh TMPRSS4 (11747572_a_at) / RFU HAMP (11756126_x_at) / Fold change /veh HAMP (11756126_x_at) / RFU RNFT2 (11725882_a_at) / Fold change /veh RNFT2 (11725882_a_at) / RFU NR4A2 (11747474_a_at) / Fold change /veh NR4A2 (11747474_a_at) / RFU ABCC12 (11746883_a_at) / Fold change /veh ABCC12 (11746883_a_at) / RFU TMEM136 (11760407_x_at) / Fold change /veh TMEM136 (11760407_x_at) / RFU CLDN22 /// WWC2 (11732394_at) / Fold change /veh CLDN22 /// WWC2 (11732394_at) / RFU HLA-DPB1 (11760878_x_at) / Fold change /veh HLA-DPB1 (11760878_x_at) / RFU SPINT1 (11716480_a_at) / Fold change /veh SPINT1 (11716480_a_at) / RFU GAP43 (11754022_s_at) / Fold change /veh GAP43 (11754022_s_at) / RFU A4GNT (11735810_at) / Fold change /veh A4GNT (11735810_at) / RFU PRB3 (11715151_x_at) / Fold change /veh PRB3 (11715151_x_at) / RFU TUBB4B (11761932_at) / Fold change /veh TUBB4B (11761932_at) / RFU CAPN14 (11732068_a_at) / Fold change /veh CAPN14 (11732068_a_at) / RFU TMCC2 (11721928_a_at) / Fold change /veh TMCC2 (11721928_a_at) / RFU IRGQ (11745062_a_at) / Fold change /veh IRGQ (11745062_a_at) / RFU FAM174B (11720279_a_at) / Fold change /veh FAM174B (11720279_a_at) / RFU TMPRSS4 (11748680_a_at) / Fold change /veh TMPRSS4 (11748680_a_at) / RFU FAM212B (11763350_a_at) / Fold change /veh FAM212B (11763350_a_at) / RFU PLEKHG5 (11743358_a_at) / Fold change /veh PLEKHG5 (11743358_a_at) / RFU ZSCAN30 (11745921_a_at) / Fold change /veh ZSCAN30 (11745921_a_at) / RFU CMKLR1 (11741424_a_at) / Fold change /veh CMKLR1 (11741424_a_at) / RFU LOC101060620 /// MAPK8IP1 (11723275_at) / Fold change /veh LOC101060620 /// MAPK8IP1 (11723275_at) / RFU SPTSSB (11747773_x_at) / Fold change /veh SPTSSB (11747773_x_at) / RFU PRSS12 (11739890_at) / Fold change /veh PRSS12 (11739890_at) / RFU BIN1 (11741810_x_at) / Fold change /veh BIN1 (11741810_x_at) / RFU WNT11 (11732464_a_at) / Fold change /veh WNT11 (11732464_a_at) / RFU C10orf10 (11716521_a_at) / Fold change /veh C10orf10 (11716521_a_at) / RFU C5orf56 (11738089_at) / Fold change /veh C5orf56 (11738089_at) / RFU CYB561 (11721691_x_at) / Fold change /veh CYB561 (11721691_x_at) / RFU ANKRD19P (11752326_a_at) / Fold change /veh ANKRD19P (11752326_a_at) / RFU OR2T12 /// OR2T33 /// OR2T8 (11738714_s_at) / Fold change /veh OR2T12 /// OR2T33 /// OR2T8 (11738714_s_at) / RFU VCAN (11748164_a_at) / Fold change /veh VCAN (11748164_a_at) / RFU JSRP1 (11732532_at) / Fold change /veh JSRP1 (11732532_at) / RFU KRTAP10-11 (11738290_x_at) / Fold change /veh KRTAP10-11 (11738290_x_at) / RFU MYO3A (11730013_a_at) / Fold change /veh MYO3A (11730013_a_at) / RFU EBF3 (11725865_a_at) / Fold change /veh EBF3 (11725865_a_at) / RFU CAMK2N1 (11719241_x_at) / Fold change /veh CAMK2N1 (11719241_x_at) / RFU C5orf56 (11738088_a_at) / Fold change /veh C5orf56 (11738088_a_at) / RFU OLFML3 (11715873_a_at) / Fold change /veh OLFML3 (11715873_a_at) / RFU LOC100653217 /// NTM (11731650_a_at) / Fold change /veh LOC100653217 /// NTM (11731650_a_at) / RFU MAPK11 (11762145_a_at) / Fold change /veh MAPK11 (11762145_a_at) / RFU FIZ1 (11724087_x_at) / Fold change /veh FIZ1 (11724087_x_at) / RFU OASL (11726364_x_at) / Fold change /veh OASL (11726364_x_at) / RFU SOX15 (11748057_x_at) / Fold change /veh SOX15 (11748057_x_at) / RFU CD79A (11719716_a_at) / Fold change /veh CD79A (11719716_a_at) / RFU HIST1H1D (11736915_at) / Fold change /veh HIST1H1D (11736915_at) / RFU CASKIN2 (11723855_a_at) / Fold change /veh CASKIN2 (11723855_a_at) / RFU LOC730098 (11760151_x_at) / Fold change /veh LOC730098 (11760151_x_at) / RFU OR4N2 (11742367_at) / Fold change /veh OR4N2 (11742367_at) / RFU PRRT2 (11749266_a_at) / Fold change /veh PRRT2 (11749266_a_at) / RFU SNX32 (11753110_a_at) / Fold change /veh SNX32 (11753110_a_at) / RFU CDHR5 (11726645_a_at) / Fold change /veh CDHR5 (11726645_a_at) / RFU RCAN1 (11760418_a_at) / Fold change /veh RCAN1 (11760418_a_at) / RFU FAM167A (11723789_a_at) / Fold change /veh FAM167A (11723789_a_at) / RFU FAM26E (11764081_at) / Fold change /veh FAM26E (11764081_at) / RFU ISYNA1 (11749810_s_at) / Fold change /veh ISYNA1 (11749810_s_at) / RFU ACY1 (11761880_at) / Fold change /veh ACY1 (11761880_at) / RFU 11764098_at / Fold change /veh 11764098_at / RFU SAMD14 (11745864_x_at) / Fold change /veh SAMD14 (11745864_x_at) / RFU NPB (11741838_a_at) / Fold change /veh NPB (11741838_a_at) / RFU TMPRSS6 (11731388_a_at) / Fold change /veh TMPRSS6 (11731388_a_at) / RFU KRTAP10-2 (11738614_at) / Fold change /veh KRTAP10-2 (11738614_at) / RFU ARHGAP8 /// PRR5-ARHGAP8 (11727945_x_at) / Fold change /veh ARHGAP8 /// PRR5-ARHGAP8 (11727945_x_at) / RFU KRTAP5-7 /// NADSYN1 (11734609_at) / Fold change /veh KRTAP5-7 /// NADSYN1 (11734609_at) / RFU RASL12 (11751679_a_at) / Fold change /veh RASL12 (11751679_a_at) / RFU CDKN2B (11736163_a_at) / Fold change /veh CDKN2B (11736163_a_at) / RFU PRF1 (11729649_at) / Fold change /veh PRF1 (11729649_at) / RFU, ZNF638 /// ZNF638-IT1 / Fold change vs veh, ZNF638 /// ZNF638-IT1 / RFU, PANK3 / Fold change vs veh, PANK3 / RFU, SH3YL1 / Fold change vs veh, SH3YL1 / RFU, ZEB2 / Fold change vs veh, ZEB2 / RFU, NRIP1 / Fold change vs veh, NRIP1 / RFU, PTTG1IP / Fold change vs veh, PTTG1IP / RFU, CAPN2 / Fold change vs veh, CAPN2 / RFU, MED14 / Fold change vs veh, MED14 / RFU, SNORA58 / Fold change vs veh, SNORA58 / RFU, C1orf63 / Fold change vs veh, C1orf63 / RFU, LRRFIP1 / Fold change vs veh, LRRFIP1 / RFU, NDUFAF7 / Fold change vs veh, NDUFAF7 / RFU, SLC12A2 / Fold change vs veh, SLC12A2 / RFU, IBTK / Fold change vs veh, IBTK / RFU, ESF1 / Fold change vs veh, ESF1 / Fold change vs veh, TMEM50B / RFU, TAOK1 / Fold change vs veh, TAOK1 / RFU, ACBD3 / Fold change vs veh, ACBD3 / RFU, TMA16 / Fold change vs veh, TMA16 / RFU, RWDD3 / Fold change vs veh, RWDD3 / RFU, BCAT1 / Fold change vs veh, BCAT1 / RFU, EDEM3 / Fold change vs veh, EDEM3 / RFU, TMEM33 / Fold change vs veh, TMEM33 / RFU, WDR75 / Fold change vs veh, WDR75 / RFU, AHCTF1 / Fold change vs veh, AHCTF1 / RFU, TFRC / Fold change vs veh, TFRC / RFU, ZDHHC17 / Fold change vs veh, ZDHHC17 / RFU, NOM1 / Fold change vs veh, NOM1 / RFU, ARL8B / Fold change vs veh, ARL8B / RFU, ZBTB11 / Fold change vs veh, ZBTB11 / RFU, TAMM41 / Fold change vs veh, TAMM41 / RFU, KIAA1704 /// LOC100996395 / Fold change vs veh, KIAA1704 /// LOC100996395 / RFU, ING1 / Fold change vs veh, ING1 / RFU, TRMT61B / Fold change vs veh, TRMT61B / RFU, FUBP3 / Fold change vs veh, FUBP3 / RFU, TP53 / Fold change vs veh, TP53 / RFU, TNKS2 / Fold change vs veh, TNKS2 / RFU, ZFP14 / Fold change vs veh, ZFP14 / RFU, ACTR2 / Fold change vs veh, ACTR2 / RFU, PPP3R1 / Fold change vs veh, PPP3R1 / RFU, PIK3R1 / Fold change vs veh, PIK3R1 / RFU, HNRNPA1 / Fold change vs veh, HNRNPA1 / RFU, RNF170 / Fold change vs veh, RNF170 / RFU, ZNF28 / Fold change vs veh, ZNF28 / RFU, RNGTT / Fold change vs veh, RNGTT / RFU, OGT / Fold change vs veh, OGT / RFU, BRD1 / Fold change vs veh, BRD1 / RFU, MARS / Fold change vs veh, MARS / RFU, ZNF655 / Fold change vs veh, ZNF655 / RFU, FAHD1 / Fold change vs veh, FAHD1 / RFU, BDP1 / Fold change vs veh, BDP1 / RFU, LRRCC1 / Fold change vs veh, LRRCC1 / RFU, ARID1A / Fold change vs veh, ARID1A / RFU, ZNF146 / Fold change vs veh, ZNF146 / RFU, ZNF330 / Fold change vs veh, ZNF330 / RFU, GPN3 / Fold change vs veh, GPN3 / RFU, C9orf123 / Fold change vs veh, C9orf123 / RFU, N4BP2L2 / Fold change vs veh, N4BP2L2 / RFU, ARFIP1 / Fold change vs veh, ARFIP1 / RFU, FAM179B / Fold change vs veh, FAM179B / RFU, BCL10 / Fold change vs veh, BCL10 / RFU, UHRF1BP1L / Fold change vs veh, UHRF1BP1L / RFU, BET1 / Fold change vs veh, BET1 / RFU, CNOT2 / Fold change vs veh, CNOT2 / RFU, ZNF268 / Fold change vs veh, ZNF268 / Fold change vs veh, ZNF507 / RFU, DGCR2 / Fold change vs veh, DGCR2 / RFU, WDSUB1 / Fold change vs veh, WDSUB1 / Fold change vs veh, HSP90B1 /// MIR3652 / RFU, ADSS / Fold change vs veh, ADSS / RFU, GK / Fold change vs veh, GK / RFU, ZNF148 / Fold change vs veh, ZNF148 / RFU, TAF9 / Fold change vs veh, TAF9 / RFU, SLC1A5 / Fold change vs veh, SLC1A5 / RFU, SLMO2 / Fold change vs veh, SLMO2 / RFU, ABCC4 / Fold change vs veh, ABCC4 / RFU, LOC101060439 /// RAP1B / Fold change vs veh, LOC101060439 /// RAP1B / RFU, RFX7 / Fold change vs veh, RFX7 / RFU, GTPBP10 / Fold change vs veh, GTPBP10 / RFU, CNEP1R1 / Fold change vs veh, CNEP1R1 / RFU, BIVM-ERCC5 /// ERCC5 / Fold change vs veh, BIVM-ERCC5 /// ERCC5 / RFU, ILF3 / Fold change vs veh, ILF3 / RFU 11762660_at / Fold change /veh 11762660_at / RFU VCAN (11757783_s_at) / Fold change /veh VCAN (11757783_s_at) / RFU DDX43 (11728927_at) / Fold change /veh DDX43 (11728927_at) / RFU KRT8 (11758188_x_at) / Fold change /veh KRT8 (11758188_x_at) / RFU NKD1 (11759106_at) / Fold change /veh NKD1 (11759106_at) / RFU SRD5A1 (11742802_a_at) / Fold change /veh SRD5A1 (11742802_a_at) / RFU TPSAB1 /// TPSB2 (11721975_s_at) / Fold change /veh TPSAB1 /// TPSB2 (11721975_s_at) / RFU GSTM3 (11746129_a_at) / Fold change /veh GSTM3 (11746129_a_at) / RFU IL23R (11737362_x_at) / Fold change /veh IL23R (11737362_x_at) / RFU TMEM51 (11727254_a_at) / Fold change /veh TMEM51 (11727254_a_at) / RFU PIWIL2 (11732686_x_at) / Fold change /veh PIWIL2 (11732686_x_at) / RFU ORM1 (11744905_x_at) / Fold change /veh ORM1 (11744905_x_at) / RFU CCDC152 (11743942_at) / Fold change /veh CCDC152 (11743942_at) / RFU ECM1 (11717891_a_at) / Fold change /veh ECM1 (11717891_a_at) / RFU IL23R (11748794_a_at) / Fold change /veh IL23R (11748794_a_at) / RFU TNFAIP8L3 (11732012_x_at) / Fold change /veh TNFAIP8L3 (11732012_x_at) / RFU MBOAT4 (11741988_at) / Fold change /veh MBOAT4 (11741988_at) / RFU 11764193_at / Fold change /veh 11764193_at / RFU TMEM53 (11763286_at) / Fold change /veh TMEM53 (11763286_at) / RFU MAGEB2 (11727129_at) / Fold change /veh MAGEB2 (11727129_at) / RFU TMEM200A (11744735_a_at) / Fold change /veh TMEM200A (11744735_a_at) / RFU CCDC152 (11751479_a_at) / Fold change /veh CCDC152 (11751479_a_at) / RFU FAM211A (11726209_a_at) / Fold change /veh FAM211A (11726209_a_at) / RFU RGS16 (11746705_a_at) / Fold change /veh RGS16 (11746705_a_at) / RFU VCAN (11755009_s_at) / Fold change /veh VCAN (11755009_s_at) / RFU RHOB (11743442_s_at) / Fold change /veh RHOB (11743442_s_at) / RFU RGS16 (11720943_a_at) / Fold change /veh RGS16 (11720943_a_at) / RFU RGS16 (11720944_at) / Fold change /veh RGS16 (11720944_at) / RFU, VPS4B / Fold change vs veh, VPS4B / RFU, CREB1 / Fold change vs veh, CREB1 / RFU, DNAJC13 / Fold change vs veh, DNAJC13 / RFU, GNAQ / Fold change vs veh, GNAQ / RFU, CDK5R1 / Fold change vs veh, CDK5R1 / RFU, ZRANB3 / Fold change vs veh, ZRANB3 / RFU, CUL4A / Fold change vs veh, CUL4A / RFU, CCNY / Fold change vs veh, CCNY / RFU, UFL1 / Fold change vs veh, UFL1 / RFU, COG3 / Fold change vs veh, COG3 / RFU, DIAPH2 / Fold change vs veh, DIAPH2 / RFU, SKA2 / Fold change vs veh, SKA2 / RFU, AFF3 / Fold change vs veh, AFF3 / RFU, LMF1 / Fold change vs veh, LMF1 / RFU, IPO11 / Fold change vs veh, IPO11 / RFU, DFFB / Fold change vs veh, DFFB / RFU, FOXP1 / Fold change vs veh, FOXP1 / RFU, CARD8 / Fold change vs veh, CARD8 / RFU, STRN3 / Fold change vs veh, STRN3 / RFU, ADK / Fold change vs veh, ADK / RFU, RASSF2 / Fold change vs veh, RASSF2 / RFU, WIPF1 / Fold change vs veh, WIPF1 / RFU, LARP1B / Fold change vs veh, LARP1B / RFU, RASA1 / Fold change vs veh, RASA1 / RFU, RB1 / Fold change vs veh, RB1 / RFU, PPFIA1 / Fold change vs veh, PPFIA1 / RFU, MAT2A / Fold change vs veh, MAT2A / RFU, CCT5 / Fold change vs veh, CCT5 / RFU, WDR92 / Fold change vs veh, WDR92 / RFU, CUX1 / Fold change vs veh, CUX1 / RFU, TTC7A / Fold change vs veh, TTC7A / RFU, TMEM135 / Fold change vs veh, TMEM135 / RFU, DEPTOR / Fold change vs veh, DEPTOR / RFU, CPM / Fold change vs veh, CPM / RFU, DNAJB6 / Fold change vs veh, DNAJB6 / RFU, CACNA2D3 / Fold change vs veh, CACNA2D3 / RFU, DTX4 / Fold change vs veh, DTX4 / RFU, TFCP2 / Fold change vs veh, TFCP2 / RFU, GMCL1 /// GMCL1P1 / Fold change vs veh, GMCL1 /// GMCL1P1 / RFU, AEBP2 / Fold change vs veh, AEBP2 / RFU, SNHG1 /// SNORD22 /// SNORD25 /// SNORD26 /// SNORD27 /// SNORD28 /// SNORD29 /// SNORD31 / Fold change vs veh, SNHG1 /// SNORD22 /// SNORD25 /// SNORD26 /// SNORD27 /// SNORD28 /// SNORD29 /// SNORD31 / Fold change (Aza/veh), C12orf56 (ProbeSet 11735607_a_at) / Fold change (ACY-1035/veh), C12orf56 (ProbeSet 11735607_a_at) / Fold change (Aza/veh), FGFR1OP (ProbeSet 11751329_s_at) / Fold change (ACY-1035/veh), FGFR1OP (ProbeSet 11751329_s_at) / Fold change (Aza/veh), VPS36 (ProbeSet 11739960_a_at) / Fold change (ACY-1035/veh), VPS36 (ProbeSet 11739960_a_at) / RFU SYPL1 (11715823_x_at) / Fold change /veh SYPL1 (11715823_x_at) / RFU IGFBP7 (11715501_s_at) / Fold change /veh IGFBP7 (11715501_s_at) / RFU REEP3 (11722064_at) / Fold change /veh REEP3 (11722064_at) / RFU IGLL1 (11728026_x_at) / Fold change /veh IGLL1 (11728026_x_at): dose or concentration left out as unconfirmed", "details": "MV-4-11 cells, 48 hours"}
{"smiles": "Nc1ccc(-c2cccs2)cc1NC(=O)c1ccc2c(c1)cc(C1CC1)n2CCN1CCOCC1", "note": "[ACY-1035]", "values": [{"measurement": "RFU TNFAIP8L3 (11732012_x_at)", "value": 8.37, "unit": "RFU"}]}
